Measurements: patent US20110105515A1, “TARGETING THE ONCOPROTEIN NUCLEOPHOSMIN” (President and Fellows of Harvard College, priority 2007, published 2011)

Legend:
CAKI-1 = test: NCI 60 cell lines, SRB assay: CAKI-1; type: cell-based, human; settings: CAKI-1 (Renal Cancer), 48 hours
Protocol: The human tumor cell lines were grown in RPMI 1640 medium containing 5% fetal bovine serum (FBS) and 2 mM L-glutamine. The cells were inoculated into 96 well microtiter plates in 100 μL volumes at plating densities ranging from 5000 to 40000 cells/well depending on the doubling time of each individual cell line. After cell inoculation, the microtiter plates were incubated at 37° C., 5% CO2, 95% air, and 100% relative humidity for 24 hours prior to addition of the test compound. The following day, two plates of each cell line were fixed in situ with TCA to represent a measurement of cell population for each cell line at the time of sample addition (Tz). Each of the test compounds was dissolved in dimethyl sulfoxide at 400-times the desired final maximum test concentration, and the resulting solutions were stored frozen prior to use. At the time of sample addition, an aliquot of frozen concentrate was thawed and diluted to twice the desired final maximum test concentration with complete medium containing 50 μg/mL gentamicin. Additional four 10-fold serial dilutions were prepared to provide a total of five sample concentrations plus control. Aliquots of 100 μL of these different concentrations were added to the appropriate microtiter wells already containing 100 μL of medium, making up the required final sample concentrations. […] Bound stain was subsequently solubilized with 10 mM trizma base, and the absorbance was read on an automated plate reader at a wavelength of 515 nm. […] Using the seven absorbance measurements [time zero (Tz), control growth (C), and test growth in the presence of drug at the five concentration levels (Ti)], the percentage growth was calculated at each of the sample concentration levels. […] The test compound concentration resulting in total growth inhibition was calculated from Ti=Tz. […] In the event when the effect was not reached or was exceeded, the value for the respective parameter was expressed as greater or less than the maximum or minimum concentration tested.

OVCAR-3 = test: cells; settings: Homo sapiens, OVCAR-3, 48 h; for CC50: read-out: LC50
SNB-75 = test: cells; settings: Homo sapiens, SNB-75, 48 h; for CC50: read-out: LC50
HS578T = test: cells; settings: Homo sapiens, Hs-578T, 48 h
T-47D = test: cells; settings: Homo sapiens, T47D, 48 h
MDA-MB-468 = test: cells; settings: Homo sapiens, MDA-MB-468, 48 h; for CC50: read-out: LC50
SK-OV-3 = test: cells; settings: Homo sapiens, SK-OV-3, 48 h; for CC50: read-out: LC50
MCF7 = test: cells; settings: Homo sapiens, MCF7, 48 h; for CC50: read-out: LC50
MDA-MB-435 = test: cells; settings: Homo sapiens, MDA-MB-435, 48 h; for CC50: read-out: LC50
NCI-H522 = test: cells; settings: Homo sapiens, NCI-H522, 48 h; for CC50: read-out: LC50
OVCAR-5 = test: cells; settings: Homo sapiens, OVCAR-5, 48 h; for CC50: read-out: LC50
HCT-15 = test: cells; settings: Homo sapiens, HCT-15, 48 h; for CC50: read-out: LC50
RPMI-8226 = test: cells; settings: Homo sapiens, RPMI-8226, 48 h
A549/ATCC = test: cells; settings: Homo sapiens, A549, 48 h; for CC50: read-out: LC50
SK-MEL-2 = test: cells; settings: Homo sapiens, SK-MEL-2, 48 h
PC-3 = test: cells; settings: Homo sapiens, PC-3, 48 h
IGROV1 = test: cells; settings: Homo sapiens, IGROV-1, 48 h
RXF 393 = test: cells; settings: Homo sapiens, RXF 393, 48 h

Structure (SMILES) | GI50 (OVCAR-3) | CC50 (OVCAR-3) | GI50 (SNB-75) | CC50 (SNB-75) | GI50 (HS578T) | GI50 (T-47D) | GI50 (MDA-MB-468) | CC50 (MDA-MB-468) | GI50 (SK-OV-3) | CC50 (SK-OV-3) | GI50 (MCF7) | CC50 (MCF7) | GI50 (MDA-MB-435) | CC50 (MDA-MB-435) | GI50 (NCI-H522) | CC50 (NCI-H522) | GI50 (OVCAR-5) | CC50 (OVCAR-5) | GI50 (HCT-15) | CC50 (HCT-15) | other results
CN(C)c1cccc2c(S(=O)(=O)NCCCCCCCCCCOc3ccc4c(c3)[N+]([O-])=C3C4=C[C@@]45NC(=O)C6(CCCN6C4=O)CC5C3(C)C)cccc12 (some centres unmarked) [Dansyl Analogue] | – | – | – | – | – | – | – | – | – | – | – | – | – | – | – | – | – | – | – | – | GI50 (CAKI-1): 426 nM; TGI (CAKI-1): 2790 nM; CC50 (CAKI-1; read-out: LC50 (the source's name)): 20800 nM
Cc1cc(C)cc(-c2ccc3c(c2)[N+]([O-])=C2C3=C[C@@]34NC(=O)C5(CCCN5C3=O)CC4C2(C)C)c1 (some centres unmarked) [Biphenyl Analogue] | 158 nM | 986 nM | 242 nM | 3860 nM | 546 nM | 57.6 nM | 160 nM | 3030 nM | 300 nM | 3450 nM | 212 nM | 5510 nM | 166 nM | 1410 nM | 66.2 nM | 1160 nM | 368 nM | 4210 nM | 146 nM | 710 nM | CC50 (HS578T; read-out: LC50): > 100000 nM; GI50 (RPMI-8226): 10.2 nM; GI50 (A549/ATCC): 279 nM; CC50 (A549/ATCC): 3000 nM
[2H]On1c2c(c3ccc4c(c31)C=CC(C)(C)O4)C(OC([2H])([2H])[2H])[C@@]13NC(=O)C4(CCCN4C1=O)CC3C2(C)C (some centres unmarked) [Deuterated Methanol Adduct] | 616 nM | 4270 nM | 265 nM | 4720 nM | 492 nM | 142 nM | 292 nM | 6960 nM | 1010 nM | 4650 nM | 348 nM | 4560 nM | 395 nM | 4720 nM | 431 nM | 4820 nM | 586 nM | 4490 nM | 548 nM | 4230 nM | GI50 (SK-MEL-2): 901 nM; CC50 (SK-MEL-2; read-out: LC50): 5390 nM; GI50 (PC-3): 619 nM; CC50 (PC-3; read-out: LC50): 5120 nM; GI50 (IGROV1): 743 nM; CC50 (IGROV1; read-out: LC50): 4680 nM; GI50 (RXF 393): 283 nM; CC50 (RXF 393; read-out: LC50): 2050 nM; GI50 (RPMI-8226): 40.2 nM; CC50 (RPMI-8226; read-out: LC50): 3300 nM; GI50 (A549/ATCC): 1560 nM; CC50 (A549/ATCC): 5730 nM
